In patent US11932850B2, “Cancer chemoprevention with STAT3 blockers” (Jill M. Siegfried, LLC, priority 2018, dated 2024):
“Also recorded” adds a separate entry of the source. Read-outs that look alike come from different tables or passages of the source.

Legend:
c-Myc mRNA in 201T cells = assay: RT-qPCR of c-Myc mRNA after EGF, 201T; type: cell-based, human; settings: single transfection, EGF 10 ng/ml 1.5 hr
H1975 cells = assay: MTS cell viability assay, H1975; type: cell-based, human; settings: for IC50: MTS 72 hours
Method: NSCLC cell lines (201T and H1975) were transfected with CS3D or CS3M (cyclic STAT3 mutant decoy) at concentrations ranging from 0 nM to 600 nM. Using MTS assays, cell viabilities were assessed 72 hours later. Three independent experiments were performed, using 24-well plates and 4 wells/concentration.
To determine the concentration of CS3D required to inhibit cell viability, increasing concentrations of CS3D was transfected, and after 72 hours, MTS assays were used to assess cell viability. Data were normalized to cells treated with lipofectamine alone.
Fluorescently-labeled CS3M and CS3D (with iFluor) were also produced using enzymatic ligation as described above and used to assess uptake efficiency. Transfections of the cyclic oligonucleotides were performed using Lipofectamine 2000 (Life Technologies) in opti-MEM media (Life Technologies) as follows: Cells were plated at […] confluency, and exposed to transfection media containing the respective circularized oligonucleotides for 24 hours at 37° C. Post-transfection, cell recovery was initiated in media containing 10% heat-inactivated fetal bovine serum.
Dose-response experiments assessing the relative number of metabolically active viable cells were performed by transfecting cells with increasing concentrations of CS3D or CS3M, followed by performance of MTS assays. After 72 hours, 5 mg/ml of MTS reagent was added in the plates and incubated 37° C. for 20 minutes. The plates were then read at 490 nm in a Synergy microplate reader (BioTek, Winooski, Vermont) using Gen5 2.05 software. Data obtained following treatment with C3SD or CS3M were normalized to treatment with lipofectamine alone. […] To assess induction of apoptosis in response to CS3D, H1975 and 201T cells were transfected with 100 nM of CS3M or CS3D. After twenty four hours of transfection, cells were resuspended in annexin V-binding buffer, incubated with 5 μL of propidium iodide (BD Biosciences) and subjected to flow cytometric analysis, using a BD FACS Canto II Flow Cytometer.

[1] = Toxicology studies in mice; type: in vivo; settings: repeated doses up to 100 mg/kg
From the text: The novel mechanism of action combined with the stability of the circularized STAT3 decoy and its low toxicity are favorable features for clinical application. In all experiments with the STAT3 decoy, activity is compared to a mutant version with a T-A base pair replacing a G-C base pair at position 9, differing by the two nucleotides in the base pair.

H3225 cells = assay: MTS cell viability assay, H3225; type: cell-based, human
[2] = tested on: K-RAS G12D mutation in tumors; settings: tumors 20 weeks post treatment, P>0.1
H1975 xenografts = assay: H1975 NSCLC xenograft tumor growth; type: in vivo, nude mice; settings: 5 mg/kg/d iv, 5 days per week, compared to CS3M
Method: Based on the in vitro effects of CS3D, antitumor effects were evaluated in mice harboring established NSCLC xenografts (10 tumors/group). When tumors reached 200 mm3, mice were given daily intravenous injections (tail vein) of CS3D or CS3M (5 mg/kg/d), 5 days per week, and tumor growth was monitored for 14-20 days. CS3D caused a significant and robust tumor growth inhibition in 201T- and H1975-derived xenografts compared to treatment with CS3M.
FIGS. 7A and 7B show CS3D suppresses NSCLC xenograft tumor growth. Intravenous delivery of CS3D inhibits tumor growth in both wild-type (FIG. 7A, 201T) and mutant EGFR T790M (FIG. 7B, H1975) xenografts. Approximately 1×10^6 cells were inoculated subcutaneously in the flanks of nude mice. Following the development of palpable tumors (about […]), mice were randomized and given daily injections of either CS3D or CS3M (5 mg/kg/day; 10 tumors/group). Experiments were done twice as biological replicates. Tumor volumes were recorded every other day while animal weights were also monitored during the course of the treatment. […]
All studies were approved by the University of Minnesota Institutional Animal Care and Use Committee and were carried out in accordance with institutional guidelines for animal care. […] Volumes were calculated from the formula V=(Length×Width^2)/2. […]

For “CS3D (DNA GATTTACGGGAAATGCSCATTTCCC; cyclic decoy with two hexaethylene glycol linkers, further chemistry not given here)”, the “toxicity in normal cells” value (normal lung fibroblasts) was “minimal”, the “IC50 in normal lung fibroblasts and bronchial epithelial cells relative to tumor cells” value (normal lung fibroblasts; fold higher than in NSCLC cell lines) was 100 fold and the “inhibition in mRNA level of c-Myc” value (c-Myc mRNA in 201T cells) was 50%. It also gave an inhibition in proliferation (H1975 cells; 0.3 μM transfection, H1975, relative to CS3M) of 50%, an IC50 (H1975 cells; H1975 (mutant EGFR), read-out: IC50) of about 300 nM and an IC50 (H1975 cells; H1975, EGFR mutant (L858R/T790M), KRAS WT, read-out: CS3D IC50) of 300 nM. The “toxicology: body weight, organ histology, clinical chemistry” value [1] was “no significant effects on body weight, organ histology, or clinical chemistry; also recorded: no appreciable changes in blood chemistry, weight or organ structure”, the IC50 (H3225 cells) was 300 nM and the “proportion of tumors positive for K-RAS mutation, CS3D vs CS3M” value [2] was “no significant difference”. The “reduction in tumor growth (tumor volume)” value (H1975 xenografts) was 81.7%.
